{"source": "patent US7129398B2", "about": "“Reversible male sterility in transgenic plants by expression of a GA-insensitive mutant protein, gai” (Monsanto Technology LLC, priority 2001, dated 2006)", "test_system": "male sterile transgenic plants (pMON42169, TA29-gai)", "assay": "Fertility restoration of gai male sterile transgenic tobacco plants by chemical spray", "assay_type": "in vivo, Nicotiana tabacum", "details": "for restoration of male fertility: aqueous 0.25% Sylgard 309; for Seed weight: mean of 5 seed sets ± SE", "experimental": "Kanamycin resistant F1 seedlings were transferred to soil and grown to flowering stage. After male sterility in the first few flowers was observed, plants from each lines were divided into four groups to receive different treatments every other day. One group received 15 mg of kinetin (a synthetic cytokinin) (Sigma) per plant, while the other two groups received either 10 mg of GA3 (Sigma) or 10 mg of TDZ (Sigma) per plant. The chemicals are in an aqueous solution containing 0.25% of Sylgard 309 surfactant (Willbur-Ellis, Fresno, Calif.) and the last group received surfactant only. The applications continued for two weeks. In another experiment, F1 plants from several male sterile transgenic lines were selected based on resistance to kanamycin and grown to flowering to verify the inheritance of the male sterile phenotype. Each plant was then sprayed with a solution containing 15 mg of kinetin every other day for two weeks. The plants continued to develop male sterile flowers until 10 days after the first application of kinetin. At 10 days post-application, the flowers that developed were male fertile. Flowers from treated plants began visibly shedding pollen whereas untreated flowers remained sterile. Under greenhouse growth conditions, the transition from stage −3 to stage 12 for a tobacco floral bud occurred in approximately 10 days. It appeared that for effective fertility restoration, kinetin needed to be applied prior to stage −2, which coincided with the onset of the TA29 promoter.", "key": {"[1]": {"details": "F1 male sterile transgenic tobacco, 10 mg per plant every other day for two weeks"}}}
{"smiles": "C=C1C[C@]23C[C@@]1(O)CC[C@H]2[C@@]12C=C[C@H](O)[C@@](C)(C(=O)O1)[C@H]2[C@@H]3C(=O)O", "note": "[GA3]", "values": [{"measurement": "restoration of anther development", "setting": "[1]", "value": "did not restore the anther development"}, {"measurement": "restoration of male fertility", "setting": "[1]", "value": "remained male sterile"}]}
{"smiles": "O=C(Nc1ccccc1)Nc1cnns1", "note": "[TDZ]", "values": [{"measurement": "restoration of male fertility", "setting": "[1]", "value": "did not restore the fertility"}]}
{"smiles": "c1coc(CNc2ncnc3[nH]cnc23)c1", "note": "[kinetin]", "values": [{"measurement": "persistence of production of male fertile flowers post-application", "setting": "15 mg per plant every other day for two weeks", "value": 11, "unit": "days"}, {"measurement": "time after first application until developing flowers were male fertile", "setting": "15 mg per plant every other day for two weeks, F1 male sterile transgenic tobacco lines", "value": 10, "unit": "days"}, {"measurement": "restoration of male fertility", "setting": "F1 male sterile transgenic tobacco, 15 mg per plant every other day for two weeks", "value": "shed pollen and set seeds"}, {"measurement": "Seed weight", "setting": "event 782 (S): selfing after fertility restoration", "value": "113.0 ± 18.9", "unit": "mg"}, {"measurement": "Seed weight", "setting": "event 790 (S): selfing after fertility restoration", "value": "110.2 ± 13.5", "unit": "mg"}, {"measurement": "morphology and seed set of restored flowers", "setting": "kinetin-restored flowers of male sterile transgenic tobacco", "value": "morphologically normal but also had typical seed sets"}, {"measurement": "difference in seed weight, selfed seed of restored flowers vs crossed seed of sterile flowers and selfed seed of wild-type flowers", "setting": "lines 788 and 790", "value": "no significant difference"}]}
